Assay results reported in ChEMBL document CHEMBL1134323, “Structural basis for the binding affinity of xanthines with the DNA intercalator acridine orange” (J Med Chem, 2001).

Test system: Nucleic Acid

SMILES	K ass [M⁻¹]
O=c1[nH]c(=O)c2nc[nH]c2[nH]1	0
Clc1ncnc2[nH]cnc12	0
Cn1c(=O)[nH]c2[nH]cnc2c1=O	79.2
CN1CNc2[nH]c(=O)n(C)c(=O)c21	155
Cn1c(=O)c2[nH]cnc2n(C)c1=O	157
Cn1c(=O)c2[nH]c(=O)[nH]c2n(C)c1=O	38.5
Cc1ncnc2nc[nH]c12	0
Cn1c(=O)[nH]c(=O)c2[nH]cnc21	10
Cn1c(O)nc2[nH]c(=O)[nH]c(=O)c21	0
c1nc2c[nH]cnc-2n1	2
Cn1c(=O)c2c(n(C)c1=O)n(C)c(=O)n2C	552
Nc1nc2[nH]cnc2c(=O)[nH]1	0
Cn1c2c(c(=O)n(C)c1=O)NCN2.N/C=C/N	596
Oc1nc(O)c2nc(O)[nH]c2n1	0
